Source: PMC7837296, “A novel LysR‐type regulator negatively affects biosynthesis of the immunosuppressant brasilicardin” (Engineering in Life Sciences, 2020)

Legend:
LysRNt (LysRNtHis6) [1] = target: T1, LysRNt (LysRNtHis6) (Nocardia terpenica, UniProt A0A164MN72); assay: fluorescence thermal shift, SYPRO Orange; format: binding; settings: read-out: dTmD at 0.6 mM
T1 construct: gene AWN90_33365; full length, C-terminal His6 tag kept (pET-21a(+)lysRNt), E. coli Rosetta 2(DE3), Talon column; only monomer seen; re-annotated start (not the N-terminally extended lysRlnNt)
T1 sequence (A0A164MN72 1-303): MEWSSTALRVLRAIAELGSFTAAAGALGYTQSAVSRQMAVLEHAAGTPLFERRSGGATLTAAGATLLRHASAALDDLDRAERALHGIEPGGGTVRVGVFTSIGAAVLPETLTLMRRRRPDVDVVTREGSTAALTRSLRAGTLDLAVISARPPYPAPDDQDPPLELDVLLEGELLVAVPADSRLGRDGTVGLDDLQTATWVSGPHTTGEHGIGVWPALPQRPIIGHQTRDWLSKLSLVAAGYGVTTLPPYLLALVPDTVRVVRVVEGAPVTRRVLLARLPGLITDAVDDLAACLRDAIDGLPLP

LysRNt (LysRNtHis6) [2] = target: T1, LysRNt (LysRNtHis6); assay: EMSA with […]-labelled bra12p DNA; format: binding; settings: 500 nM protein, PBS, 1% ethanol

Structure (SMILES) | ΔTm at 600 µM (LysRNt (LysRNtHis6) [1]) [°C] | % DNA-protein complex remaining at 1 mM (LysRNt (LysRNtHis6) [2]; weak effect) [%] | % DNA-protein complex remaining at 1 mM (LysRNt (LysRNtHis6) [2]; compound lowers DNA binding) [%]
O=C(O)c1ccccc1 [compound 2, sodium benzoate] | 0.19 | 84 | 
O=C(O)c1cccc(O)c1 [compound 5, 3-hydroxybenzoic acid] | 0.17 | 86 | 
O=C(O)c1ccccc1O [compound 4, salicylic acid] | 0.74 |  | 47
